In patent US20250051321A1, “TRICYCLIC DERIVATIVE AND PREPARATION METHOD THEREFOR AND APPLICATION THEREOF” (SHANGHAI JEMINCARE PHARMACEUTICAL CO., LTD., priority 2021, published 2025):
Where two headings read alike, the source gives them in different places.

Tests used:
[1] = Pharmacokinetic test in mice; format: in vivo, ICR mice; details: male, ICR, mouse, plasma
Experimental: Dosage preparation: The dosing solution was prepared on the day of dosing. 2 mg of compound was weighed and dissolved in 5% DMSO+10% solutol+85% saline to prepare a solution for intravenous administration at a concentration of 0.2 mg/mL. 2 mg of compound was weighed and dissolved in 25% PEG 200+75% (0.5% MC) to obtain a solution for oral administration at a concentration of 1 mg/mL.
Six healthy male naïve ICR mice, weighing 25 to 30 g, were divided into two groups (intravenous and oral groups) with three in each group, and administered in a single dose. After 3 days of acclimatization, the mice were fasted overnight (10 to 12 hours) the night before the experiment, but had free access to water during the experiment, and the diet was resumed 4 hours after administration. After intravenous and oral administration, the timer was started. Blood was collected via the orbital venous plexus at the scheduled time points (IV&PO: 0.083, 0.25, 0.5, 1, 2, 4, 6, 8, and 24 hours). 40 μL of whole blood was collected at each point and added to a 1.5 mL EP tube containing sodium heparin. The collected whole blood was vibrated twice on a vortex mixer, mixed well, placed on wet ice, and centrifuged at 8000 rpm for 5 minutes at 4° C. within 1 hour. The supernatant plasma was stored in a −80° C. freezer until processing for analysis.

[2] = test system: plasma LPA 18:1 and LPA 18:2; assay: Human plasma ex vivo assay (LPA 18:1 / 18:2 by LC-MS/MS); format: biochemical; details: 37° C., 2 hours
In short: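 Human plasma incubated 2 h at 37° C with compound (8 points, 1:3 dilution, top 10 μM, 0.1% DMSO), then quenched with 0.1% FA containing LPA 17:0 internal standard.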

ATX = ATX (Homo sapiens (Human), UniProt Q13822); assay: ATX enzyme inhibition assay (Amplex UltraRed/choline oxidase/HRP, 16:0 Lyso PC substrate); format: biochemical
In short: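 ATX (2× stock […]) preincubated with compound for 10 min at room temperature in assay buffer at pH 8.5 or 7.5. Reaction started with 16:0 Lyso PC, choline oxidase, HRP and Amplex UltraRed (2.5× working stock); fluorescence read kinetically (ex 550/em 590 nm) for 60 min.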

[3] = LPA 18:1, read-out: Human plasma ex vivo assay IC50 (18:1 LPA)
[4] = LPA 18:2, read-out: Human plasma ex vivo assay IC50 (18:2 LPA)
[5] = assay buffer pH 7.5, read-out: IC50 (nM) pH 7.5
[6] = assay buffer pH 8.5, read-out: IC50 (nM) pH 8.5

Q: Which AUC ([1]; 1 mg/kg, IV - 1 mpk) does the source give for `CN(c1nc(-c2ccc(F)cc2)c(C#N)s1)c1c2c(nc3c(F)cc(N4CC5(CN(C(=O)C(C)(C)O)C5)C4)cc13)[C@](C)(O)CC2` (single isomer, unassigned) [Example E35-b] here?
A: 6770 ng·h/mL

Q: And the C0 ([1]; 1 mg/kg, IV - 1 mpk)?
A: 2920 ng/mL

Q: What about the half-life ([1]; 1 mg/kg, IV - 1 mpk) of the same compound?
A: 2.51 h

Q: And the clearance ([1]; 1 mg/kg, IV - 1 mpk, read-out: CL (mL/min/kg, IV))?
A: 2.51 mL/min/kg

Q: And the AUC ([1]; 5 mg/kg, PO - 5 mpk)?
A: 14700 ng·h/mL

Q: What about the Cmax ([1]; 5 mg/kg, PO - 5 mpk) of the same compound?
A: 3140 ng/mL

Q: And the Tmax ([1]; 5 mg/kg, PO - 5 mpk)?
A: 1.58 h

Q: What about the half-life ([1]; 5 mg/kg, PO - 5 mpk) of the same compound?
A: 2.05 h

Q: What about the bioavailability ([1]; 5 mg/kg, PO - 5 mpk vs IV - 1 mpk) of the same compound?
A: 43.5%

Q: And the IC50 [2, 3]?
A: 457 nM

Q: And the IC50 [2, 4]?
A: 407 nM

Q: What does the source list for `CN(c1nc(-c2ccc(F)cc2)c(C#N)s1)c1c2c(nc3c(F)cc(N4CCN(S(C)(=O)=O)[C@H](CO)C4)cc13)CCC2` [Example B3]?
A: IC50 (ATX; [5]): 171 nM; IC50 (ATX; [6]): 41.2 nM; IC50 [2, 3]: 170 nM; IC50 [2, 4]: 165 nM

Q: Which IC50 (ATX; [5]) does the source give for `CN(c1nc(-c2ccc(F)cc2)c(C#N)s1)c1c2c(nc3c(F)cc(N4CCN(S(C)(=O)=O)[C@@H](CO)C4)cc13)CCC2` [Example B4] here?
A: 611 nM

Q: And the IC50 (ATX; [6])?
A: 66.5 nM

Q: What about the IC50 [2, 3] of the same compound?
A: 219 nM

Q: And the IC50 [2, 4]?
A: 253 nM

Q: What does the source list for `CN(c1nc(-c2ccc(F)cc2)c(C#N)s1)c1c2c(nc3c(F)cc(N4CC5(CN(C(=O)[C@@H]6CCOC6)C5)C4)cc13)CCC2` [Example C2]?
A: IC50 (ATX; [5]): 41.6 nM; IC50 (ATX; [6]): 23.8 nM; IC50 [2, 3]: 402 nM; IC50 [2, 4]: 365 nM

Q: With `CN(c1nc(-c2ccc(F)cc2)c(C#N)s1)c1c2c(nc3ncc(N4CC5(CN(C(=O)[C@H]6CCOC6)C5)C4)cc13)CCC2` [Example C3] as the compound, how does the IC50 (ATX; [5]) read?
A: 32 nM

Q: And the IC50 (ATX; [6])?
A: 22.7 nM

Q: And the IC50 [2, 3]?
A: 141 nM

Q: What about the IC50 [2, 4] of the same compound?
A: 135 nM

Q: With `CN(c1nc(-c2ccc(F)cc2)c(C#N)s1)c1c2c(nc3ncc(N4CC5(CN(C(=O)[C@@H]6CCOC6)C5)C4)cc13)CCC2` [Example C4] as the compound, how does the IC50 (ATX; [5]) read?
A: 38.6 nM

Q: What about the IC50 (ATX; [6]) of the same compound?
A: 27.4 nM

Q: What about the IC50 [2, 3] of the same compound?
A: 114 nM

Q: What about the IC50 [2, 4] of the same compound?
A: 89.2 nM

Q: With `CN(c1nc(-c2ccc(F)cc2)c(C#N)s1)c1c2c(nc3c(F)cc(N4CCN(C(=O)[C@@H]5CCOC5)CC4)cc13)CCC2` [Example C6] as the compound, how does the IC50 (ATX; [5]) read?
A: 1230 nM

Q: What about the IC50 (ATX; [6]) of the same compound?
A: 196 nM

Q: What about the IC50 [2, 3] of the same compound?
A: 232 nM

Q: What about the IC50 [2, 4] of the same compound?
A: 264 nM

Q: Which IC50 (ATX; [5]) does the source give for `CN(c1nc(-c2ccc(F)cc2)c(C#N)s1)c1c2c(nc3c(F)cc(N4CCN(C(=O)[C@H]5CCOC5)CC4)cc13)CCC2` [Example C7] here?
A: 1140 nM

Q: What about the IC50 (ATX; [6]) of the same compound?
A: 193 nM

Q: What about the IC50 [2, 3] of the same compound?
A: 354 nM

Q: What about the IC50 [2, 4] of the same compound?
A: 401 nM

Q: What does the source list for `CN(c1nc(-c2ccc(F)cc2)c(C#N)s1)c1c2c(nc3c(F)cc(N4CC5(CCN(C(=O)[C@@H]6CCOC6)CC5)C4)cc13)CCC2` [Example C9]?
A: IC50 (ATX; [5]): 78.5 nM; IC50 (ATX; [6]): 23 nM; IC50 [2, 3]: 216 nM; IC50 [2, 4]: 234 nM

Q: Which IC50 (ATX; [5]) does the source give for `CN(c1nc(-c2ccc(F)cc2)c(C#N)s1)c1c2c(nc3ccc(N4CC5(CN(C(=O)[C@H]6CCOC6)C5)C4)nc13)CCO2` [Example C10] here?
A: 33.6 nM

Q: And the IC50 (ATX; [6])?
A: 18.6 nM

Q: What about the IC50 [2, 3] of the same compound?
A: 147 nM

Q: What about the IC50 [2, 4] of the same compound?
A: 134 nM

Q: Which IC50 (ATX; [5]) does the source give for `CN(c1nc(-c2ccc(F)cc2)c(C#N)s1)c1c2c(nc3c(F)cc(N4CC5(CN(C(=O)[C@H]6CCOC6)C5)C4)cc13)CCO2` [Example C12] here?
A: 82.2 nM

Q: What about the IC50 (ATX; [6]) of the same compound?
A: 52.6 nM

Q: And the IC50 [2, 3]?
A: 292 nM

Q: What about the IC50 [2, 4] of the same compound?
A: 347 nM

Q: With `CN(c1nc(-c2ccc(F)cc2)c(C#N)s1)c1c2c(nc3c(F)cc(N4CCC5(CCN(C(=O)[C@@H]6CCOC6)C5)C4)cc13)CCC2` (some centres unmarked) [Example C14] as the compound, how does the IC50 (ATX; [5]) read?
A: 334 nM

Q: And the IC50 (ATX; [6])?
A: 83.1 nM

Q: What about the IC50 [2, 3] of the same compound?
A: 310 nM

Q: And the IC50 [2, 4]?
A: 379 nM

Q: With `CN(c1nc(-c2ccc(F)cc2)c(C#N)s1)c1c2c(nc3c(F)cc(N4CCC5(CCN(C(=O)[C@@H]6CCOC6)CC5)C4)cc13)CCC2` [Example C15] as the compound, how does the IC50 (ATX; [5]) read?
A: 232 nM

Q: What about the IC50 (ATX; [6]) of the same compound?
A: 60.6 nM

Q: And the IC50 [2, 3]?
A: 285 nM

Q: And the IC50 [2, 4]?
A: 326 nM

Q: What does the source list for `CN(c1nc(-c2ccc(F)cc2)c(C#N)s1)c1c2c(nc3c(F)cc(N4CC5(CN(C(=O)C6(O)CCOCC6)C5)C4)cc13)COC2` [Example C20]?
A: IC50 (ATX; [6]): 24.2 nM; IC50 [2, 3]: 677 nM; IC50 [2, 4]: 362 nM

Q: Which AUC ([1]; 5 mg/kg, PO - 5 mpk) does the source give for `Cc1cc(N2CC3(CN(C(=O)C(C)(C)O)C3)C2)cc2c(N(C)c3nc(-c4ccc(F)cc4)c(C#N)s3)c3c(nc12)CC3` [Example C26] here?
A: 124000 ng·h/mL

Q: And the Cmax ([1]; 5 mg/kg, PO - 5 mpk)?
A: 8390 ng/mL

Q: And the Tmax ([1]; 5 mg/kg, PO - 5 mpk)?
A: 4.08 h

Q: And the half-life ([1]; 5 mg/kg, PO - 5 mpk)?
A: 5.13 h

Q: And the IC50 [2, 3]?
A: 588 nM

Q: What about the IC50 [2, 4] of the same compound?
A: 435 nM
